How the values were obtained:
[1] = system: P-elF2α dependent read-through of Atf4 uORFs (Atf4-fluc reporter) in HEK293 cells; assay: Atf4-luciferase reporter (Fluc/Rluc ratio) in transfected HEK293 cells; format: cell-based
From the text: The Atf4- and Tacc3-luciferase constructs were made by cloning gBlock gene fragments (Integrated DNA Technologies) corresponding to 5′UTRs of Mus musculus Atf4 and Tacc3, fused to the 5′end of the fluc gene up to the Narl restriction enzyme site. Mutant versions of Atf4 and Tacc3 5′UTRs were designed with each ATG start codon of uORFs deleted. These 5′UTR gene fragments were cloned into Hindlll, Narl sites upstream of the firefly luciferase (fluc) gene in pGL3-promoter plasmids, thereby maintaining the final overlapping uORF with the main ORF for fluc (Promega™). FIG. 5A and FIG. 5B show a schematic of the formation of a pre-initiation complex that includes many factors including the a subunit (elF2α) that is dephosphorylated (FIG. 5A) or phosphorylated (FIG. 5B). The pre-initiation complex associates with the uORFs, where, if phosphorylated, translation initiation of the uORFs occurs upstream of Atf4 and continues to translate Atf4. However, if elF2α is dephosphorylated (FIG. 5A), no translation initiation occurs for Atf4 as the pre-initiation complex dissociates from the uORFs.
HEK293 cells were plated in 24-well plates at a density of 25,000 cells/well and incubated overnight. […] The cells were then lysed and the Fluc/Rluc ratio was determined using the Promega™ Dual-Luciferase Reporter kit (Madison, USA). […]

[2] = system: elF2α phosphorylation in C2C12 cells; assay: Immunoblot of P-elF2α and total elF2α in C2C12 cell lysates; format: cell-based
Method: (§1) Moreover, cells and single EDL myofibres were cultured in 39% Dulbecco's modified eagle medium (DMEM), 39% F12, 20% fetal calf serum (FCS) (Life Technologies), 2% UltroserG™ (Pall Life Sciences). C2C12 myoblasts were cultured in DMEM supplemented with 20% FCS. When indicated, culture conditions were supplemented with 0.1% dimethylsulfoxide (DMSO control, Sigma), 10 μM sal003 (Sigma), or 0.1-0.2 μM C15.
For immunoblotting, cell lysates were obtained in RIPA buffer (ThermoFischer Scientific) supplemented with complete protease inhibitor cocktail (Roche) and phosphatase inhibitor cocktail (Sigma). The primary antibodies used were against PAX7 (DHSB), LAMININ (Sigma L9393), MYOG (Abcam 124800 and Santacruz sc-12732), and β-ACTIN (Sigma A5441). Alexa™ Fluor-488, Alexa™ Fluor-594 and Alexa™ Fluor-647 conjugated secondary anti-mouse IgG1, anti-mouse IgG2B or anti-rabbit antibodies (Life technologies) were used for immunofluorescence. Horseradish peroxidase (HRP) conjugated anti-mouse or anti-rabbit secondary antibodies (Jackson Immunoresearch) were used with the ECL™ Prime Western Blotting Detection reagents (GE Healthcare). Densitometry of immunoblots was performed with ImageJ™.
To determine the effect of C15 on elF2α phosphorylation, C2C12 cell lysates cultured for twelve hours in the presence of sal003 (10 μM) or C15 (0.1 μM and 0.2 μM) were immunoblotted.

Dmd^mdx mice = assay: In vivo administration by osmotic pump in Dmd^mdx mouse model of Duchenne muscular dystrophy
Method: FIG. 20 is a schematic diagram of in vivo administration of C15 by an osmotic pump in the Dmd^mdx mouse model of Duchenne muscular dystrophy, specifically Alzet™ 2001 osmotic pumps were used to deliver 2.5 mg/kg/day of C15 with a vehicle containing 50:50 DMSO:[…] at a flow rate of 0.5 μL/hr by a subcutaneous implantation of the Alzet™ 2001 osmotic pumps into Dmd^mdx mouse, and 14 days later muscle was harvested for quantification by fluorescence of the myofibre CSA (red) and PAX7(+) (green) satellite cell compartment.
In this example, the effect of C15 on the dephosphorylated levels of elF2α was studied. Animal care practices were performed in accordance with the federal Canadian Council on Animal Care, as practiced by McGill University. All mice were maintained on a C57/BI6 background. Dmd^mdx mice, aged 8-10 weeks, were implanted (sub-cutaneously) with osmotic pumps (Alzet™) to deliver C15 at a rate of 2.5 mg/kg/day. C15 was dissolved in a 50:50 solution of DMSO:PEG400. At indicated time points, muscle was harvested for analysis by immunofluorescence.
(§2) Immunoassays were also performed to further confirm the effect of C15 on the dephosphorylation of elF2α. For immunofluorescence, cultured satellite cells were fixed in 4% paraformaldehyde (PFA), permeabilized with 0.2% Triton™, 50 mM NH4Cl and blocked in 5% horse serum (HS). Single EDL myofibers were fixed with 4% PFA, permeabilized with 0.1% Triton™ in PBS and blocked in 5% horse serum (HS) with 0.1% Triton™ in PBS. TA muscles were fixed for 2 hr in 0.5% PFA at 4° C. and equilibrated overnight in 20% sucrose at 4° C. Tissues were mounted in Frozen Section Compound (VWR) and flash frozen in a liquid nitrogen-cooled isopentane bath. Transverse sections (10 μm) were permeabilized with 0.1% Triton™, 0.1M Glycine in PBS, and blocked in Mouse on Mouse (M.O.M.) reagent (Vector Labs).

[3] = system: PAX7-expressing muscle stem cells (MuSCs); assay: DDX6-positive RNA granules in PAX7-expressing MuSCs, ex vivo culture, immunofluorescence; format: cell-based, mice
Method: as §1
P-elF2α is required for the assembly of DDX6-positive(+) RNA granules in quiescent and self-renewing satellite cells. Activated muscle stem cells (MuSCs) dephosphorylate elF2α, RNA granules disassemble, and the myogenic program is activated.
as §2, with “Transverse sections (10 μm) were permeabilized with 0.1% Triton™, 0.1M Glycine in PBS, and blocked in Mouse on Mouse (M.O.M.) reagent (Vector Labs).” left out

[4] = system: MuSCs isolated from skeletal muscle of Dmd^mdx mice; assay: Ex vivo culture of MuSCs from Dmd^mdx mice: PAX7 expression, myocolony size, fusion index; format: cell-based
Method: as §1
PAX7 expression marks MuSCs that retained stem cell properties to regenerate muscle. Under normal culture conditions, PAX7-expression is down regulated as MuSCs differentiate and lose their stem cell properties to regenerate muscle. […] Conceptually, these ex vivo results support a model by which pharmacological interventions that promote MuSC expansion (FIG. 10A, FIG. 10B, and FIG. 11) in the short term will lead to improved muscle mass and strength in the long term.
as §2

satellite cells = assay: Ex vivo expansion of cultured cells; format: cell-based; settings: sal003 concentrations lower than 10 μM
Method: Moreover, cells and single EDL myofibres were cultured in 39% Dulbecco's modified eagle medium (DMEM), 39% F12, 20% fetal calf serum (FCS) (Life Technologies), 2% UltroserG™ (Pall Life Sciences). C2C12 myoblasts were cultured in DMEM supplemented with 20% FCS. […]

Row | Compound | P-elF2α activity to enable read-through of uORFs after incubation at 37° C. (stability) ([1]; C15 10 μM, incubated at 37° C. for 0-3 weeks, HEK293 cells (FIG. 19)) | luciferase activity (Atf4-fluc reporter) ([1]; HEK293 cells, overnight, 10 μM, compared with sal003, C10 and DMSO (FIG. 6)) | P-elF2α levels (P-elF2α : total elF2α) ([2]; C2C12 cells, 12 hours, C15 0.1 to 0.2 μM vs sal003 10 μM (FIG. 15, 16)) | activity of increasing P-elF2α levels after incubation at 37° C. (stability) ([2]; C15 10 μM, incubated at 37° C. for 0-3 weeks, C2C12 cells (FIG. 17, 18)) | MuSC associated RNA granules (EDL myofibres) (Dmd^mdx mice; 2.5 mg/kg/day C15, osmotic pump s.c., two weeks (FIG. 21)) | myofiber cross sectional area of treated muscle (Dmd^mdx mice; 2.5 mg/kg/day C15, two weeks) | numbers of central nucleated myofibres (Dmd^mdx mice; 2.5 mg/kg/day C15, two weeks) | numbers of PAX7-expressing MuSCs on single EDL myofibres (Dmd^mdx mice; 2.5 mg/kg/day C15, two weeks (FIG. 23)) | numbers of PAX7-expressing MuSCs on transverse sections of tibialis anterior (TA) (Dmd^mdx mice; 2.5 mg/kg/day C15, two weeks (FIG. 24)) | numbers of PAX7-expressing MuSCs on transverse sections of diaphragm (Dmd^mdx mice; 2.5 mg/kg/day C15, two weeks (FIG. 25)) | DDX6(+) RNA granules in PAX7-expressing MuSCs, culture of isolated MuSCs ([3]; 0.2 μM C15, 4-day culture (FIG. 9)) | DDX6(+) RNA granules in PAX7-expressing MuSCs, culture of single myofibres ([3]; 0.2 μM C15, after 6 h (FIG. 7, 8)) | fusion index (number of nuclei per myotube) ([4]; 0.2 μM C15, 7 days (FIG. 14)) | PAX7 expression of Dmd^mdx MuSCs ([4]; 0.2 μM C15, cultured 3 days (FIG. 10, 11)) | myocolony size ([4]; 0.2 μM C15, long periods of time (7 days; FIG. 12, 13)) | ex vivo expansion of cells (satellite cells)
1 | CC(C)(C)c1ccc(NC(=S)NC(NC(=O)/C=C/c2ccccc2)C(Cl)(Cl)Cl)cc1 (stereo not shown) [C15] | maintained | significantly increases luciferase activity, higher than sal003 and C10 | increased the P-elF2α levels to a level equivalent to 10 μM sal003 | maintained the activity of increasing P-elF2α levels | maintenance of MuSC associated RNA granules | increased | decreased | increased numbers | increased numbers | increased numbers | maintained | maintained | larger fusion index | maintain PAX7 expression | larger myocolonies | –
2 | O=C(/C=C/c1ccccc1)NC(NC(=S)Nc1ccc(Cl)cc1)C(Cl)(Cl)Cl (stereo not shown) [sal003] | – | – | – | – | – | – | – | – | – | – | – | – | – | – | – | not possible to expand the cells ex vivo at sal003 concentrations lower than 10 μM

Reference: patent US12497358B2, “Inhibitor of EIF2α dephosphorylation” (THE ROYAL INSTITUTION FOR THE ADVANCEMENT OF …, priority 2021, dated 2025)
